In this test the test system is CEM cells HIV-1 protection, formazan growth assay. Description: NCI AIDS Antiviral Assay. The conditions noted are these: for IC50: measured here: growth of uninfected CEM cells. The essentials:
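Human CEM cells, uninfected and HIV-1-infected, exposed to five drug concentrations; growth measured by soluble formazan assay and scored as percent protection from infection, with protecting compounds retested.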

Calls of active or inactive are those of the source.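 Rule for the calls: active = compounds giving half or more protection of infected cells from virus-caused growth loss, again on retest; inactive = the rest.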 Where a SMILES comes first, the peptide text is derived from it.

With `CC1=NN(C(=O)CC(=O)N(C(=O)c2ccccc2Cl)c2ccc(C)cc2)C(=O)C1N=Nc1ccc([N+](=O)[O-])cc1` (stereo not given), the EC50 is greater than 12.9 µM and the half-inhibitory concentration (IC50) is greater than 12.9 µM.

Consider `Cc1nc2ccccc2c(=O)n1NC(=S)Nc1ccc(Cl)cc1[N+](=O)[O-]`, for which the EC50 was greater than 93.3 µM and the half-maximal inhibitory concentration (IC50) is greater than 93.3 µM.

For `COc1ccc2c(c1OC)Oc1c(OC)ccc3c1C(C2)NCC3` (stereo not given), the EC50 was greater than 170 µM and the IC50 is greater than 100 µM.

With `Cc1cc(O)c(C=O)c2c1C(=O)Oc1c(C)c(O)c(C(=O)O)c(C)c1O2`, the EC50 was greater than 200 µM and the IC50 came to 186 µM.

Consider `CO[C@H]1/C=C/O[C@@]2(C)Oc3c(C)c(O)c4c(O)c(c(/C=N/N5C(C)CN(Cc6ccccc6)CC5C)c(O)c4c3C2=O)NC(=O)/C(C)=C\C=C\[C@H](C)[C@H](O)[C@@H](C)[C@@H](O)[C@@H](C)[C@H](OC(C)=O)[C@@H]1C` (stereo not given in full), for which the EC50 was greater than 200 µM and the concentration for half-maximal inhibition (IC50) is 9.77 µM.

As for `Cc1cccc(/C=C2\CCCCCC2=O)c1`, the EC50 is greater than 200 µM and the half-inhibitory concentration (IC50) amounted to 53.7 µM.

On to `CC(=O)Nc1ccc(-c2nnc(SCC(=O)Nc3ccccc3)o2)cc1`, for which the EC50 was greater than 37.2 µM and the 50% inhibitory concentration (IC50) is 20.9 µM.

Take `Cc1cccc(/C=N/NC(=S)NCCc2ccccn2)n1`: the EC50 was greater than 200 µM and the IC50 was 20.4 µM.

On to `CCOC(=O)NC(Nc1ccc([N+](=O)[O-])cc1)(C(F)(F)F)C(F)(F)F`, for which the EC50 was greater than 200 µM and the 50% inhibitory concentration (IC50) was 66.1 µM.

For the compound `NCCCCN(CCCN)Cc1ccccc1`, the outcome was inactive.

For `Cc1ccc(NC2=N/C(=C/c3ccccc3)C(Cl)=N2)cc1`, the EC50 was greater than 100 µM and the IC50 was greater than 100 µM.

For `c1ccc(SC2CCCO2)cc1` (stereo not given), the result was inactive.

For `Cc1cn(C2CC(CCN(O)CC3OC(n4cc(C)c(=O)[nH]c4=O)CC3O[Si](C)(C)C(C)(C)C)C(CO[Si](C)(C)C(C)(C)C)O2)c(=O)[nH]c1=O` (stereo not given), the EC50 was greater than 200 µM and the half-maximal inhibitory concentration (IC50) turned out to be 11.5 µM.

For `Cn1cc2c(=O)n3ncn(-c4ccc(Br)cc4)c3nc2n1`, the EC50 was greater than 200 µM and the IC50 was greater than 200 µM.

As to `COc1ccccc1/C=C1\NC(=S)N(/C=C2\C(=O)Oc3ccccc3C2=O)C1=O`, the EC50 is greater than 200 µM and the 50% inhibitory concentration (IC50) was found to be 81.3 µM.

In the case of `C[Si](C)(C)c1ccc(-c2sc(-c3ccc([Si](C)(C)C)s3)c3c2C[Si]2(C3)Cc3c(-c4ccc([Si](C)(C)C)s4)sc(-c4ccc([Si](C)(C)C)s4)c3C2)s1`, the EC50 was greater than 5.75 µM and the half-inhibitory concentration (IC50) was greater than 5.75 µM.

For `NC(=O)C(NCc1ccccc1)c1ccccc1` (stereo not given), the EC50 is greater than 200 µM and the IC50 is greater than 200 µM.

For the compound `CN(C)N1C(=O)CC2(CCN(CCCC(=O)c3ccc(F)cc3)CC2)C1=O`, the EC50 is greater than 200 µM and the IC50 is greater than 200 µM.

Regarding `NC(=O)c1ccccc1NC(=O)C(=O)Cc1nc2ccccc2[nH]c1=O`, the EC50 was greater than 269 µM and the half-inhibitory concentration (IC50) is greater than 269 µM.

For `CC(=O)N1OC(C)CC1Nc1ccc(Br)cc1` (stereo not given), the EC50 was greater than 200 µM and the half-inhibitory concentration (IC50) worked out at 25.1 µM.

For the compound `C/C(=N\NC(=S)N1CCN(c2ccccn2)CC1)c1ncccn1`, the EC50 is greater than 39.8 µM and the 50% inhibitory concentration (IC50) was 0.0479 µM.

Consider `CNC(=O)/C(C#N)=C(\N)N1CCCC1`, for which the EC50 is greater than 200 µM and the IC50 was greater than 200 µM.

`CCOP(=O)(OCC)C(=Cc1ccccc1)P(=O)(OCC)OCC`: the EC50 is greater than 661 µM and the IC50 was found to be 398 µM.

For the compound `Clc1ccc(C2SCc3nc4ccccc4n32)c(Cl)c1` (stereo not given), the outcome was inactive.

With `N#C/C(c1nc2ccccc2[nH]1)=c1\s/c(=C/c2ccc(Cl)cc2)c(=O)n1-c1ccccc1`, the EC50 is greater than 200 µM and the IC50 is 107 µM.

As for `CC(C)=CCOc1cc(NC(=S)c2ccoc2C)ccc1Cl`, the EC50 was 0.0759 µM and the half-maximal inhibitory concentration (IC50) turned out to be 30.2 µM.

For `COC(=O)[C@@]1(C)/C(=N/NS(=O)(=O)c2ccc(C)cc2)CCC[C@@H]1C`, the EC50 was greater than 269 µM and the IC50 was determined as 219 µM.

Turning to `Oc1c(Cl)ccc2cccnc12`, the EC50 is greater than 20 µM and the IC50 turned out to be 0.676 µM.

Consider `C[C@H]1C[C@H]2[C@@H]3CCC4=CC(=O)C=C[C@]4(C)C3=CC[C@]2(C)[C@@]1(O)C(=O)CO`, for which the half-maximal effective concentration (EC50) was 102 µM and the IC50 turned out to be 107 µM.

On to `CCCN(CCC)C(=S)N/N=C(/C)c1ccccc1O`, for which the EC50 was greater than 200 µM and the IC50 was 15.8 µM.

In the case of `O=c1onc(Nc2ccccc2)n1-c1ccccc1`, the EC50 is greater than 200 µM and the half-inhibitory concentration (IC50) was found to be 129 µM.

As for `CCOC(=O)c1sc2nc(SC)nc3c2c1N=CN3c1ccccc1Cl`, the EC50 was greater than 100 µM and the IC50 is greater than 100 µM.

In the case of `c1ccc(NCn2cnc3ccccc32)cc1`, the outcome was inactive.

In the case of `COc1ccc(C2(O)c3ccccc3C(=O)N(C)C2(O)c2ccc(OC)cc2)cc1` (stereo not given), the EC50 is greater than 200 µM and the half-maximal inhibitory concentration (IC50) was 37.2 µM.

For `CCN(CC)CC(=O)Nc1ccc(C)c(Cl)c1`, the EC50 is greater than 200 µM and the concentration for half-maximal inhibition (IC50) turned out to be 112 µM.

Turning to `CC(=O)Oc1ccc(-c2cc3ccccc3oc2=O)cc1`, the EC50 is greater than 200 µM and the IC50 is 28.2 µM.

Consider `O=C1/C(=N\O)c2ccccc2S1(=O)=O`, for which the result was inactive.

`CC1(C)CCc2cc3c(cc2O1)OC(C)(C)C1c2cc(O)c(OCc4ccccc4)cc2OC31` (stereo not given): the EC50 was greater than 200 µM and the IC50 turned out to be 61.7 µM.

On to `COc1ccc(C(c2c(O)c3ccccc3oc2=O)c2c(O)c3ccccc3oc2=O)cc1`, for which the EC50 was greater than 200 µM and the concentration for half-maximal inhibition (IC50) was determined as 87.1 µM.

Consider `COc1c2c(cc3c(CCc4ccccc4)cc(=O)oc13)CCC(C)(C)O2`, for which the EC50 was greater than 14.5 µM and the half-maximal inhibitory concentration (IC50) was greater than 14.5 µM.

As to `COc1ccc(/C=C2\CCS(=O)(=O)c3ccccc3C2=O)cc1`, the EC50 was greater than 200 µM and the IC50 stood at 16.6 µM.

Regarding `CO/C=N/c1cn2c(n1)CN=C2`, the EC50 was greater than 200 µM and the IC50 is greater than 200 µM.

For the compound `O=C1C=CC(=O)c2nc(-c3ccccc3)c(-c3ccccc3)nc21`, the EC50 is 0.363 µM and the half-maximal inhibitory concentration (IC50) was 12 µM.

With `N[C@H](C(=O)O)[C@@H](Cl)CC(=O)O`, the result was inactive.

As for `S=P(Oc1cc(Cl)c(Cl)cc1Cl)(N1CCN(c2cccc(Cl)c2)CC1)N1CCN(c2cccc(Cl)c2)CC1`, the EC50 was greater than 11.2 µM and the half-inhibitory concentration (IC50) is greater than 11.2 µM.

In the case of `CCOC(=O)C(NC(=O)CC)(Nc1cc(C)on1)C(F)(F)F` (stereo not given), the EC50 is greater than 200 µM and the IC50 is greater than 200 µM.

`CC(=O)NC(CS)C(=O)NC(CO)C(=O)NC(CO)C(=O)NC(Cc1c[nH]c2ccccc12)C(=O)N1CCCC1C(=O)NC(CO)C(=O)NC(Cc1c[nH]c2ccccc12)C(=O)NC(Cc1c[nH]cn1)C(=O)NC(CO)C(=O)NC(Cc1c[nH]c2ccccc12)C(=O)NCC(=O)NCC(=O)NC(CC(=O)O)C(=O)NC(CCC(N)=O)C(=O)NC(CCCCN)C(=O)NC(Cc1ccccc1)C(=O)NC(CCCNC(=N)N)C(=O)NC(CCCCN)C(N)=O` (stereo not given) (Ac-CSSWPSWHSWGGDQKFRK-NH2; configuration not given here): the EC50 is greater than 20 µM and the IC50 is greater than 20 µM.

As to `CC1Cn2c(nc3ccccc32)NC1=O` (stereo not given), the EC50 is greater than 200 µM and the IC50 is greater than 200 µM.

Consider `COc1cc2ccc3c(c2oc1=O)[C@@H](OC(=O)C12CCC(C)(C(=O)O1)C2(C)C)[C@@H](OC(=O)C12CCC(C)(C(=O)O1)C2(C)C)C(C)(C)O3` (stereo not given in full), for which the 50% effective concentration (EC50) was 0.851 µM and the IC50 was 19.1 µM.

Take `CCOC(=O)C1(C(C)=O)OC(=O)c2cnccc21` (stereo not given): the EC50 was greater than 200 µM and the 50% inhibitory concentration (IC50) is greater than 200 µM.

For `O=[N+]([O-])c1ccc(N=Cc2ccc(Cl)cc2)cc1`, the EC50 was greater than 200 µM and the IC50 is 9.77 µM.

On to `CC1(C)CN=C(Nc2ccc(Cl)cc2)S1`, for which the outcome was inactive.

Regarding `OCC1OC(n2cnc3cncnc32)CC1O` (stereo not given), the outcome was inactive.

On to `O=C(N=c1nc2ccccn2s1)c1ccccc1`, for which the EC50 was greater than 53.7 µM and the half-inhibitory concentration (IC50) was greater than 53.7 µM.

In the case of `O=C1c2cc(Cc3ccccc3)c(=O)c(Cc3ccccc3)cc2C(=O)c2cc(Cc3ccccc3)c(=O)c(Cc3ccccc3)cc21`, the EC50 was greater than 200 µM and the IC50 was greater than 200 µM.

Take `Nc1nc2c(c(=O)[nH]1)C(c1ccccc1)CC(=O)N2` (stereo not given): the EC50 is greater than 200 µM and the IC50 is greater than 200 µM.

Regarding `O=S(O)c1cc(Cl)cc(Cl)c1O`, the outcome was inactive.

Turning to `C/C(=N/NC(=O)c1ccccc1Nc1ccccc1C(=O)N/N=C(\C)c1ccc(C)cc1)c1ccc(C)cc1`, the EC50 was greater than 20 µM and the concentration for half-maximal inhibition (IC50) is 8.91 µM.

As to `O=C1CC2CCCC(=O)C23CCC[C@H]13` (stereo not given in full), the EC50 is greater than 324 µM and the IC50 is greater than 324 µM.

For `COc1cc2c(cc1Oc1c(Oc3c(O)c(OC)cc4c3C(CC(C)C)N(C)CC4)c(OC)cc3c1C(CC(C)C)N(C)CC3)C(CC(C)C)N(C)CC2` (stereo not given), the outcome was inactive.

With `O=c1c2cncnc2sc2nccn12`, the EC50 was greater than 200 µM and the IC50 was greater than 200 µM.

Turning to `Cc1cc2c(cc1C)[n+](=O)cc(C(=O)C/C(=N/NC(=S)NN)C(=O)Nc1cccc(C(F)(F)F)c1)n2[O-]`, the EC50 is greater than 126 µM and the IC50 was greater than 126 µM.

For `CCOC(=O)/C(=C/c1cc(OC)ccc1OC)P(=O)(OCC)OCC`, the EC50 is greater than 676 µM and the 50% inhibitory concentration (IC50) turned out to be 316 µM.

As to `COc1cccc([N+](=O)[O-])c1N=O`, the EC50 was greater than 200 µM and the IC50 was 102 µM.

Consider `Nc1ccccc1SSc1ccccc1C(=O)O`, for which the half-maximal effective concentration (EC50) is 35.5 µM and the IC50 was found to be 41.7 µM.

Take `COc1cc2oc(=O)cc(C)c2cc1OC`: the EC50 is greater than 200 µM and the half-maximal inhibitory concentration (IC50) is greater than 200 µM.

For the compound `O=C(O)C1CCC(c2ccc(F)cc2)=N1` (stereo not given), the EC50 was greater than 200 µM and the IC50 is greater than 200 µM.

For the compound `CCOc1ccc(Nc2nc(N)nc(N)c2N=O)cc1`, the EC50 was greater than 151 µM and the IC50 worked out at 15.8 µM.

For the compound `O=C(COc1ccccc1Cl)N1N=C(c2ccccc2)CC1(O)c1ccccc1` (stereo not given), the EC50 was greater than 24.5 µM and the IC50 is greater than 24.5 µM.

As to `Nc1nc(N)nc(Nc2ccc([As](=O)(O)O)cc2)n1`, the EC50 is greater than 21.9 µM and the 50% inhibitory concentration (IC50) was greater than 21.9 µM.

As a reminder, the EC50 is the concentration that produces a half-maximal response. For orientation: IC50 means the concentration that inhibits the measured activity by half. A low value points to inhibition by little substance.

Values taken from PubChem BioAssay AID179 (DTP/NCI, 2004).
